{"source": "paper PMC7104285", "about": "“Enzymatic Degradation of p-Nitrophenyl Esters, Polyethylene Terephthalate, Cutin, and Suberin by Sub1, a Suberinase Encoded by the Plant Pathogen Streptomyces scabies” (Microbes and Environments, 2020)", "system": "T1, Sub1", "T1 construct": "signal peptide removed; pET-30a(+) NcoI/XhoI, His6-tagged (tag kept), expressed in E. coli SHuffle T7", "assay": "spectrophotometric p-nitrophenol release at […] nm, Michaelis-Menten fit", "assay_type": "biochemical, Streptomyces scabiei", "conditions": "Tris-HCl 20 mM, pH 7.5, room temperature; Triton X-100 (0.5%) apparently present"}
{"smiles": "CCCC(=O)Oc1ccc([N+](=O)[O-])cc1", "note": "[p-nitrophenyl butyrate]", "values": [{"measurement": "Km", "result": "570 ± 40", "unit": "µM"}]}
